Test [1] is described as follows: Reaction constant k1 value for the oxidation of the 1-benzyl-dihydronicotinamide in 100 mM, pH 7.4 phosphate buffer at 15 degrees C.
Test [2] is described as follows: Reaction constant k1 value for the oxidation of the 1-benzyl-dihydronicotinamide in 100 mM, pH 7.4 phosphate buffer at 30 degrees C.
The nature of test [3]: Reaction constant k1 value for sulfite (100 mM) addition at pH 7.4 phosphate buffer at 30 degrees C.
Test [4] can be described thus: Reaction constant k-1 value for sulfite (100 mM) addition at pH 7.4 phosphate buffer at 30 degrees C.
Test [5] is described as follows: Dissociation constant value was determined.

As to `Cn1c2nc(=O)[nH]c(=O)c-2nc2ccccc21`, the K1 is 928 M⁻¹ min⁻¹ in test [1] and 2580 M⁻¹ min⁻¹ in test [2].

As for `O=c1nc2n3c4c(cccc4nc-2c(=O)[nH]1)CCC3`, the K1 was found to be 612 M⁻¹ min⁻¹ in test [1], 0.443 M⁻¹ min⁻¹ in test [3] and 1540 M⁻¹ min⁻¹ in test [2]. The K-1 in test [4] was 0.651 min⁻¹. The dissociation constant Kd in test [5] is 1470 mM.

On to `O=c1nc2n3c4c(cccc4nc-2c(=O)[nH]1)CCC3CO` (configuration not stated), for which the K1 in test [1] was determined as 646 M⁻¹ min⁻¹; in test [3], 0.493 M⁻¹ min⁻¹; in test [2], 1490 M⁻¹ min⁻¹. The same molecule had a K-1 in test [4] of 0.183 min⁻¹. This molecule also displayed a dissociation constant (Kd) in test [5] of 371 mM.

A word on the Kd: it is the free concentration of one partner at which half of the binding sites on the other are occupied at equilibrium, for simple one-to-one binding. The low end stands for a tighter complex, the high end for a looser complex.

These data come from ChEMBL document CHEMBL1135366, “An N1-hydrogen bonding model for flavin coenzyme” (Bioorg Med Chem Lett, 2002).
